Assay [1] concerns the target T1, JAK1 (Homo sapiens, UniProt P23458).
T1 construct: 5 μl of catalytic domain recombinant Kinase enzyme+Tyr peptide substrate (Invitrogen, Calif.); purchased Invitrogen
As to the kind of experiment: Z'-LYTE kinase assay, JAK1 tyrosine phosphorylation activity. Type of assay: biochemical. Particulars: read-out: JAK 1 IC50. Put shortly: (§1)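 Inhibition is expressed as substrate phosphorylation relative to inhibitor-free wells, fitted with a 4-parameter logistic model for IC50. Reactions contain catalytic-domain kinase, Tyr6 peptide and ATP, run 1 h at room temperature. Development protease is added for 1 h before fluorescence readout.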

The target in assay [2] is T2, JAK2 (Homo sapiens, UniProt O60674).
T2 construct: 5 μl of catalytic domain recombinant Kinase enzyme+Tyr peptide substrate (Invitrogen, Calif.); purchased Invitrogen
The assay is described as follows: Z'-LYTE kinase assay, JAK2 tyrosine phosphorylation activity. Type of assay: biochemical. The procedure, abridged: as §1

Assay [3] deals with T3, JAK3 (Homo sapiens, UniProt P52333).
T3 construct: 5 μl of catalytic domain recombinant Kinase enzyme+Tyr peptide substrate (Invitrogen, Calif.); purchased Invitrogen
As to the kind of experiment: Z'-LYTE kinase assay, JAK3 tyrosine phosphorylation activity. It counts as biochemical. The procedure, abridged: as §1

The target of assay [4] is T4, TYK2 (Homo sapiens, UniProt P29597).
T4 construct: 5 μl of catalytic domain recombinant Kinase enzyme+Tyr peptide substrate (Invitrogen, Calif.); purchased Invitrogen
T4 sequence (P29597 897-1176 limits assumed): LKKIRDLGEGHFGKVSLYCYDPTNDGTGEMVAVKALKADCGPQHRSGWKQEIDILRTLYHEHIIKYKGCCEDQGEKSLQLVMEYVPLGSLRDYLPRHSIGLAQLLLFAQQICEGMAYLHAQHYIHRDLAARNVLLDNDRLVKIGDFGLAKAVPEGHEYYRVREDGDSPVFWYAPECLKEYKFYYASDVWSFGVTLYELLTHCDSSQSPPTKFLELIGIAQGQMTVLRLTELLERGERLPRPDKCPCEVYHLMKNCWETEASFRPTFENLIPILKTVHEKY
The assay is described as follows: Z'-LYTE kinase assay, TYK2 tyrosine phosphorylation activity. Type of assay: biochemical. Put shortly:
as §1

For assay [5], the system named is IL4-induced phospho STAT6 formation in Ramos B lymphocytes. As to the kind of experiment: Inhibition of IL4-induced phospho STAT6 formation in Ramos B lymphocytes (flow cytometry). It counts as cell-based, human. The note with it: Homo sapiens; for inhibition at 0.2 µM: 200 nM compound, read-out: % Inhibition of IL-4 Induced STAT6 Phosphorylation 200 nM; for inhibition at 1 µM: 1 μM compound, read-out: % Inhibition of IL-4 Induced STAT6 Phosphorylation 1 μM. The procedure, abridged:
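Human Ramos B cells (0.5 million) pre-incubated 1 h at 37°C/5% CO2 with compound or DMSO, then stimulated with 1 ng/ml IL4 for 10 min. Cells were PFA-fixed, methanol-permeabilized and stained with Alexa-anti-phosphoSTAT6 (Y641); flow cytometry mean fluorescence gave percent inhibition of the IL4 signal.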
A general note: In flow cytometry, cells or beads pass a laser one at a time.

The target in assay [6] is Syk (Homo sapiens, UniProt P43405). As to the kind of experiment: Syk IC50 (Table 1; method not given). It counts as biochemical.

The structures appear in SMILES notation. Some results are limits rather than exact numbers.

IC50 and inhibition data for 17 compounds are collected here from US8853230B2, “Inhibitors of JAK” (Portola Pharmaceuticals, Inc., priority 2009, dated 2014).

T3 sequence (P52333 822-1111 limits assumed): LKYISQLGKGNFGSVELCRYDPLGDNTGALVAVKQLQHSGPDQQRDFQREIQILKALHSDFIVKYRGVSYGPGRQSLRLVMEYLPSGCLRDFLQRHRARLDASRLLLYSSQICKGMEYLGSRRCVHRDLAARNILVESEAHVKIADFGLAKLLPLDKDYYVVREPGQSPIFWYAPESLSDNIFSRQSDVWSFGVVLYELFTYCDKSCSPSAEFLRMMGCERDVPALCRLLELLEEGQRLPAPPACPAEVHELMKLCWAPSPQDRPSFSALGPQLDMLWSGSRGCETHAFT
T1 sequence (P23458 875-1153 limits assumed): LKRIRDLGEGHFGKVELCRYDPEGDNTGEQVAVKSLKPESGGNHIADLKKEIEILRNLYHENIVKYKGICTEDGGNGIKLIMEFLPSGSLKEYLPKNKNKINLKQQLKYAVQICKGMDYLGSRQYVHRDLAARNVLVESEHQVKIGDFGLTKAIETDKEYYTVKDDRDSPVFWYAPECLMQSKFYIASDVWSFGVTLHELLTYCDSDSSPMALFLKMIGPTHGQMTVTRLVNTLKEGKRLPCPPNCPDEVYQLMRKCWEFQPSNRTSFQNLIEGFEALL
T2 sequence (O60674 849-1124 limits assumed): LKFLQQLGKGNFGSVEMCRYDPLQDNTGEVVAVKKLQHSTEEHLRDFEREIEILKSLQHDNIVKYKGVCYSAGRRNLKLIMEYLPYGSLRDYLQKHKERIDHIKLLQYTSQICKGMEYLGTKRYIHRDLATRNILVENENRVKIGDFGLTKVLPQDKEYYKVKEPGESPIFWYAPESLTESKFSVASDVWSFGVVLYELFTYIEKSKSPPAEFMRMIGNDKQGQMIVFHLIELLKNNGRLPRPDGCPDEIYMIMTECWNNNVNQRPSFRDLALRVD

As for `COC(=O)Nc1cc(Nc2ncc(C(N)=O)c(N[C@H](C)c3ccccc3)n2)ccc1Cl` [Example 129, (R)-methyl 5-(5-carbamoyl-4-(1-phenylethylamino)pyrimidin-2-ylamino)-2-chlorophenylcarbamate], the IC50 in assay [1] was > 1000 nM; in assay [2] it was 100 to 1000 nM; in assay [3] it was 10 to 100 nM; in assay [4], 100 to 1000 nM; in assay [6], > 1000 nM. The inhibition at 0.2 µM in assay [5] is 4%. The inhibition at 1 µM in assay [5] was 16.7%.

In the case of `NC(=O)c1cnc(Nc2cccc(NC(=O)N3CCCC3)c2)nc1NCc1ccccc1` [Example 40, 4-(benzylamino)-2-(3-(pyrrolidine-1-carboxamido)phenylamino)pyrimidine-5-carboxamide], the IC50 was 10 to 100 nM in assay [1]; 10 to 100 nM in assay [2]; < 1 nM in assay [3]; 1 to 10 nM in assay [4]; > 1000 nM in assay [6]. The inhibition at 0.2 µM in assay [5] turned out to be 47.2%. Moreover, the inhibition at 1 µM in assay [5] stood at 78.8%.

Take `COCC(=O)Nc1cccc(Nc2ncc(C(N)=O)c(N[C@H](C)c3ccccc3)n2)c1` [Example 47, (R)-2-(3-(2-methoxyacetamido)phenylamino)-4-(1-phenylethylamino)pyrimidine-5-carboxamide]: the IC50 in assay [1] is 100 to 1000 nM; in assay [2], 10 to 100 nM; in assay [3], 1 to 10 nM; in assay [4], 10 to 100 nM; in assay [6] it was > 1000 nM. Also, the inhibition at 0.2 µM in assay [5] was determined as 25.3%. Further, the inhibition at 1 µM in assay [5] worked out at 77.7%.

In the case of `NC(=O)Nc1cccc(Nc2ncc(C(N)=O)c(NCc3ccccc3)n2)c1` [Example 38, 4-(benzylamino)-2-(3-ureidophenylamino)pyrimidine-5-carboxamide], the IC50 in assay [1] was in the range of 10 to 100 nM; in assay [2], 10 to 100 nM; in assay [3], 1 to 10 nM; in assay [4], 1 to 10 nM; in assay [6], 100 to 1000 nM. In addition, the inhibition at 0.2 µM in assay [5] stood at 41.3%. Besides, in assay [5], the inhibition at 1 µM was determined as 82.7%.

Take `CC[C@H](C)[C@@H](CO)Nc1nc(Nc2cccc(NC(C)=O)c2)ncc1C(N)=O` [Example 73, 2-(3-acetamidophenylamino)-4-((2S,3S)-1-hydroxy-3-methylpentan-2-ylamino)pyrimidine-5-carboxamide]: the IC50 was 10 to 100 nM in assay [1]; 10 to 100 nM in assay [2]; 1 to 10 nM in assay [3]; 1 to 10 nM in assay [4]; > 1000 nM in assay [6]. For the same compound, in assay [5], the inhibition at 0.2 µM stood at 17.1%. In assay [5], the inhibition at 1 µM was determined as 55.6%.

On to `CC(=O)Nc1cccc(Nc2ncc(C(N)=O)c(NCC3CCCN(C(=O)OCc4ccccc4)C3)n2)c1` (centres unmarked) [Example 115, Benzyl 3-((2-(3-acetamidophenylamino)-5-carbamoylpyrimidin-4-ylamino)methyl)piperidine-1-carboxylate], for which the IC50 in assay [1] is 100 to 1000 nM; in assay [2], 100 to 1000 nM; in assay [3], 10 to 100 nM; in assay [4] it was 100 to 1000 nM; in assay [6] it was > 1000 nM. Further, the inhibition at 0.2 µM in assay [5] stood at 12.3%. In assay [5], the inhibition at 1 µM turned out to be 53.7%.

Turning to `CC(=O)Nc1cccc(Nc2ncc(C(N)=O)c(NC3CCOCC3)n2)c1` [Example 75, 2-(3-acetamidophenylamino)-4-(tetrahydro-2H-pyran-4-ylamino)pyrimidine-5-carboxamide], the IC50 in assay [1] is 10 to 100 nM; in assay [2], 10 to 100 nM; in assay [3], 1 to 10 nM; in assay [4] it was 10 to 100 nM; in assay [6], > 1000 nM. Further, in assay [5], the inhibition at 0.2 µM was 53.3%. Besides, the inhibition at 1 µM in assay [5] amounted to 90.3%.

As to `COCC(=O)Nc1cccc(Nc2ncc(C(N)=O)c(NCc3ccccc3)n2)c1` [Example 29, 4-(benzylamino)-2-(3-(2-methoxyacetamido)phenylamino)pyrimidine-5-carboxamide], the IC50 is 10 to 100 nM in assay [1]; 10 to 100 nM in assay [2]; 1 to 10 nM in assay [3]; 1 to 10 nM in assay [4]; > 1000 nM in assay [6]. The inhibition at 0.2 µM in assay [5] was found to be 37.5%. In addition, the inhibition at 1 µM in assay [5] was determined as 80%.

On to `NC(=O)c1cnc(Nc2ccc(Cl)c(NC(=O)N3CCCC3)c2)nc1NCc1ccccc1` [Example 130, 4-(benzylamino)-2-(4-chloro-3-(pyrrolidine-1-carboxamido)phenylamino)pyrimidine-5-carboxamide], for which the IC50 in assay [1] was 100 to 1000 nM; in assay [2] it was 100 to 1000 nM; in assay [3], 1 to 10 nM; in assay [4], 10 to 100 nM; in assay [6], > 1000 nM. Besides, in assay [5], the inhibition at 0.2 µM turned out to be 0.7%. In addition, in assay [5], the inhibition at 1 µM came to 19%.

For `CCOC(=O)Nc1cccc(Nc2ncc(C(N)=O)c(NC3CCCC3)n2)c1` [Example 24, ethyl 3-(5-carbamoyl-4-(cyclopentylamino)pyrimidin-2-ylamino)phenylcarbamate], the 50% inhibitory concentration (IC50) in assay [1] lay within 100 to 1000 nM; in assay [2], 100 to 1000 nM; in assay [3], 10 to 100 nM; in assay [4], 10 to 100 nM; in assay [6], 100 to 1000 nM. In assay [5], the inhibition at 0.2 µM is 24.7%. Further, the inhibition at 1 µM in assay [5] amounted to 71.3%.

In the case of `CC(=O)Nc1cccc(Nc2ncc(C(N)=O)c(NC3CCCCC3)n2)c1` [Example 52, 2-(3-acetamidophenylamino)-4-(cyclohexylamino)pyrimidine-5-carboxamide], the IC50 lay within 10 to 100 nM in assay [1]; 10 to 100 nM in assay [2]; 1 to 10 nM in assay [3]; 1 to 10 nM in assay [4]; 100 to 1000 nM in assay [6]. Besides, in assay [5], the inhibition at 0.2 µM is 63%. Moreover, the inhibition at 1 µM in assay [5] turned out to be 94%.

Consider `CNC(=O)Nc1cccc(Nc2ncc(C(N)=O)c(NCc3ccccc3)n2)c1` [Example 39, 4-(benzylamino)-2-(3-(3-methylureido)phenylamino)pyrimidine-5-carboxamide], for which the IC50 was 10 to 100 nM in assay [1]; 10 to 100 nM in assay [2]; 1 to 10 nM in assay [3]; 1 to 10 nM in assay [4]; > 1000 nM in assay [6]. Besides, the inhibition at 0.2 µM in assay [5] was determined as 15%. Also, the inhibition at 1 µM in assay [5] is 60%.

Take `CC(=O)Nc1cccc(Nc2ncc(C(N)=O)c(NCC3CCCN(C(C)=O)C3)n2)c1` (centres unmarked) [Example 119, 2-(3-acetamidophenylamino)-4-((1-acetylpiperidin-3-yl)methylamino)pyrimidine-5-carboxamide]: the IC50 was in the range of 10 to 100 nM in assay [1]; 10 to 100 nM in assay [2]; 1 to 10 nM in assay [3]; 10 to 100 nM in assay [4]; 100 to 1000 nM in assay [6]. In addition, the inhibition at 0.2 µM in assay [5] was found to be 9%. In addition, the inhibition at 1 µM in assay [5] worked out at 63%.

Turning to `COC(=O)Nc1cc(Nc2ncc(C(N)=O)c(NCc3ccccc3)n2)ccc1Cl` [Example 32, methyl 5-(4-(benzylamino)-5-carbamoylpyrimidin-2-ylamino)-2-chlorophenylcarbamate], the IC50 in assay [1] was 100 to 1000 nM; in assay [2], 100 to 1000 nM; in assay [3] it was 10 to 100 nM; in assay [4] it was 10 to 100 nM; in assay [6], > 1000 nM. Also, the inhibition at 0.2 µM in assay [5] turned out to be 27%. Besides, the inhibition at 1 µM in assay [5] is 65%.

With `COC(=O)Nc1cccc(Nc2ncc(C(N)=O)c(NCc3ccccc3)n2)c1` [Example 30, methyl 3-(4-(benzylamino)-5-carbamoylpyrimidin-2-ylamino)phenylcarbamate], the IC50 in assay [1] is 100 to 1000 nM; in assay [2] it was 10 to 100 nM; in assay [3], 1 to 10 nM; in assay [4], 1 to 10 nM; in assay [6] it was 100 to 1000 nM. For the same compound, the inhibition at 0.2 µM in assay [5] worked out at 8.3%. Moreover, the inhibition at 1 µM in assay [5] turned out to be 63%.

For the compound `CC(=O)Nc1cccc(Nc2ncc(C(N)=O)c(NCc3ccccc3)n2)c1` [Example 17, 2-(3-acetamidophenylamino)-4-(benzylamino)pyrimidine-5-carboxamide], the IC50 in assay [1] is 10 to 100 nM; in assay [2] it was 1 to 10 nM; in assay [3], < 1 nM; in assay [4], 1 to 10 nM; in assay [6], 100 to 1000 nM. Moreover, the inhibition at 0.2 µM in assay [5] amounted to 34%. For the same compound, the inhibition at 1 µM in assay [5] was determined as 73.7%.

Regarding `CCC(=O)Nc1cccc(Nc2ncc(C(N)=O)c(NCc3ccccc3)n2)c1` [Example 28, 4-(benzylamino)-2-(3-propionamidophenylamino)pyrimidine-5-carboxamide], the IC50 in assay [1] was 10 to 100 nM; in assay [2], 10 to 100 nM; in assay [3], 1 to 10 nM; in assay [4], 1 to 10 nM; in assay [6] it was > 1000 nM. Further, the inhibition at 0.2 µM in assay [5] was determined as 32%. Also, the inhibition at 1 µM in assay [5] stood at 77.7%.

The term IC50 denotes the concentration that gives 50% inhibition. As a reminder, the inhibition is the drop in the measured response relative to a control, in per cent.
